Tests used:
[1] = test system: SORT1 in SKOV3 ovarian cancer cells; test: Competition of TH19P01-Alexa^488 uptake, SKOV3; format: cell-based, human; settings: 10 µM neurotensin, 2 h, n = 4
Experimental: (§1) Cells were grown in 12-well plates in complete media for 24 h. Where required, cells were transiently transfected with 100 nM of siRNA (either a scrambled, control siRNA, or one that was directed against a particular mRNA) for 24 h using Lipofectamine 2000. Cells were next washed with PBS and then incubated in HBSS without phenol red for 2 h at 37 °C in the presence or absence of 200 nM Alexa^488-labeled TH19P01 peptide. Alexa^488-labeled TH19P01 peptide uptake was also measured with or without competition by an excess of unlabeled TH19P01 peptide (50 µM) or neurotensin (10 µM) during a 2 h uptake before washing with serum-free media. Cell fluorescence was evaluated in the FL1 channel using a C6 Accuri flow cytometer (BD Biosciences, Mississauga, ON, Canada).
(§2) Figure 4 Internalization of TH19P01-Alexa^488 peptide by SORT1 in ovarian cancer cell lines. […] (B) Uptake of TH19P01-Alexa^488 into two ovarian cancer cell lines was measured in the presence of excess concentrations of substrates known to bind to SORT1 (50 µM TH19P01 and 10 µM neurotensin). […] Results are expressed as normalized RFU according to measurements of control wells. […]

[2] = test system: SORT1 in ES-2 ovarian cancer cells; test: Competition of TH19P01-Alexa^488 uptake, ES-2; format: cell-based, human; settings: 10 µM neurotensin, 2 h, n = 4
Experimental: as §1, §2

For “neurotensin: known ligand of SORT1, synthesized in-house”, the “TH19P01-Alexa^488 uptake with neurotensin” value [1] was “reduced” and the “TH19P01-Alexa^488 uptake with neurotensin” value [2] was “reduced”.
